Laboratory results from paper PMC6522510 (Nature Communications, 2019).
Blank lines part the entries; values can stand above or below the compound they belong to.

Key:
MOLM-13 [1] = assay: cells; design: species or system AML cell lines (8); Secondary HTS, 10-point dose-response in triplicate, Cell Titer Glo viability, four-parameter fit EC50; conditions: Homo sapiens, MOLM-13, 72 h, read-out: MOLM-13
MV4-11 [2] = assay: cells; design: species or system AML cell lines (8); Secondary HTS, 10-point dose-response in triplicate, Cell Titer Glo viability, four-parameter fit EC50; conditions: Homo sapiens, MV4-11, 72 h, read-out: MV4-11
CHRF288-11 [3] = assay: cells; design: species or system AML cell lines (8); Secondary HTS, 10-point dose-response in triplicate, Cell Titer Glo viability, four-parameter fit EC50; conditions: 72 h, read-out: CHRF288-11
CMS = assay: cells; design: species or system AML cell lines (8); Secondary HTS, 10-point dose-response in triplicate, Cell Titer Glo viability, four-parameter fit EC50; conditions: 72 h, read-out: CMS
M07e = assay: cells; design: species or system AML cell lines (8); Secondary HTS, 10-point dose-response in triplicate, Cell Titer Glo viability, four-parameter fit EC50; conditions: M-07e, 72 h, read-out: M07e
ML-2 = assay: cells; design: species or system AML cell lines (8); Secondary HTS, 10-point dose-response in triplicate, Cell Titer Glo viability, four-parameter fit EC50; conditions: Homo sapiens, ML-2, 72 h, read-out: ML-2
U937 [4] = assay: cells; design: species or system AML cell lines (8); Secondary HTS, 10-point dose-response in triplicate, Cell Titer Glo viability, four-parameter fit EC50; conditions: Homo sapiens, U-937, 72 h, read-out: U937
CMK [5] = assay: Secondary dose-response HTS, Cell Titer Glo; format: cell-based, human; conditions: Homo sapiens; secondary high-throughput screen; CMK; read-out: average effective concentration, CMK
MOLM-13 [6] = assay: Secondary dose-response HTS, Cell Titer Glo; format: cell-based, human; conditions: Homo sapiens; secondary high-throughput screen; MOLM-13; read-out: average effective concentration, MOLM-13
MV4-11 [7] = assay: Secondary dose-response HTS, Cell Titer Glo; format: cell-based, human; conditions: Homo sapiens; secondary high-throughput screen; MV4-11; read-out: average effective concentration, MV4-11
CHRF288-11 [8] = assay: Secondary dose-response HTS, Cell Titer Glo; format: cell-based, human; conditions: Homo sapiens, HTS; secondary high-throughput screen; CHRF288-11; read-out: average effective concentration, CHRF288-11
U937 [9] = assay: Secondary dose-response HTS, Cell Titer Glo; format: cell-based, human; conditions: Homo sapiens, U-937; secondary high-throughput screen; U937; read-out: average effective concentration, U937
CMK [10] = assay: cells; design: species or system AML cell lines (8); Secondary HTS, 10-point dose-response in triplicate, Cell Titer Glo viability, four-parameter fit EC50; conditions: Homo sapiens, CMK, 72 h, read-out: CMK

Structure (SMILES): N[C@@H]1C[C@H]1c1ccccc1 (racemic) [SJ000286124, TRANYLCYPROMINE]
EC50 (MOLM-13 [1]): > 10 µM | EC50 (MV4-11 [2]): > 10 µM | EC50 (CHRF288-11 [3]): > 10 µM | EC50 (CMS): > 10 µM | EC50 (M07e): > 10 µM | EC50 (ML-2): > 10 µM | EC50 (U937 [4]): > 10 µM

Structure (SMILES): C=C(c1ccc(C(=O)O)cc1)c1cc2c(cc1C)C(C)(C)CCC2(C)C [BEXAROTENE]
EC50 (MV4-11 [7]): 2.1 µM | EC50 (CMK [5]): 8.1 µM | EC50 (MOLM-13 [1]): > 10 µM | EC50 (CHRF288-11 [3]): > 10 µM | EC50 (CMS): > 10 µM | EC50 (M07e): > 10 µM | EC50 (ML-2): > 10 µM | EC50 (U937 [4]): > 10 µM

Structure (SMILES): COc1cc2nccc(Oc3ccc(NC(=O)C4(C(=O)Nc5ccc(F)cc5)CC4)cc3)c2cc1OC [CABOZANTINIB]
EC50 (MOLM-13 [6]): 0.05 µM | EC50 (MV4-11 [7]): 0.001 µM | EC50 (CMK [5]): 7.3 µM | EC50 (CHRF288-11 [3]): > 10 µM | EC50 (CMS): > 10 µM | EC50 (M07e): > 10 µM | EC50 (ML-2): > 10 µM | EC50 (U937 [4]): > 10 µM

Structure (SMILES): Nc1ncn([C@H]2C[C@H](O)[C@@H](CO)O2)c(=O)n1 [DECITABINE]
EC50 (MOLM-13 [6]): 0.001 µM | EC50 (CHRF288-11 [8]): 7 µM | EC50 (CMK [5]): 4.3 µM | EC50 (U937 [9]): 0.31 µM | EC50 (MV4-11 [2]): 9.6 µM | EC50 (CMS): > 10 µM | EC50 (M07e): > 10 µM | EC50 (ML-2): > 10 µM

Structure (SMILES): Cc1nc(C(=O)NCC(=O)O)c(O)c2ccc(Oc3ccccc3)cc12 [FG-4592]
EC50 (MOLM-13 [6]): 0.002 µM | EC50 (MV4-11 [2]): > 10 µM | EC50 (CHRF288-11 [3]): > 10 µM | EC50 (CMK [10]): > 10 µM | EC50 (CMS): > 10 µM | EC50 (M07e): > 10 µM | EC50 (ML-2): > 10 µM | EC50 (U937 [4]): > 10 µM

Structure (SMILES): C=CC(=O)N1CCC[C@@H](n2nc(-c3ccc(Oc4ccccc4)cc3)c3c(N)ncnc32)C1 [Ibrutinib]
EC50 (CHRF288-11 [3]): > 10 µM | EC50 (M07e): > 10 µM | EC50 (ML-2): > 10 µM

Structure (SMILES): CC[C@H](C)C(=O)O[C@H]1C[C@@H](C)C=C2C=C[C@H](C)[C@H](CC[C@@H]3C[C@@H](O)CC(=O)O3)[C@H]21 [LOVASTATIN]
EC50 (MOLM-13 [6]): > 10 µM | EC50 (CHRF288-11 [8]): 6.3 µM | EC50 (MV4-11 [2]): > 10 µM | EC50 (CMK [10]): > 10 µM | EC50 (CMS): > 10 µM | EC50 (M07e): > 10 µM | EC50 (ML-2): > 10 µM | EC50 (U937 [4]): > 10 µM

More lines, main results first:

EC50 (MOLM-13 [1]): > 10 µM | EC50 (MV4-11 [2]): > 10 µM | EC50 (U937 [4]): > 10 µM
Structure (SMILES): CC(=O)O[C@H]1CC[C@@]2(C)C(=CC[C@@H]3[C@@H]2CC[C@]2(C)C(c4cccnc4)=CC[C@@H]32)C1 [ABIRATERONE ACETATE]
EC50 (CMK [5]): 5.3 µM | EC50 (CHRF288-11 [3]): > 10 µM | EC50 (CMS): > 10 µM | EC50 (M07e): > 10 µM | EC50 (ML-2): > 10 µM

EC50 (MOLM-13 [6]): > 10 µM | EC50 (MV4-11 [7]): > 10 µM | EC50 (U937 [9]): > 10 µM
Structure (SMILES): CC(C)c1c(C(=O)Nc2ccccc2)c(-c2ccccc2)c(-c2ccc(F)cc2)n1CC[C@@H](O)C[C@@H](O)CC(=O)O [ATORVASTATIN]
EC50 (CHRF288-11 [8]): > 10 µM | EC50 (CMK [10]): > 10 µM | EC50 (CMS): > 10 µM | EC50 (M07e): > 10 µM | EC50 (ML-2): > 10 µM

EC50 (U937 [4]): > 10 µM
Structure (SMILES): COc1cc(CCc2cc(NC(=O)c3ccc(N4C[C@@H](C)N[C@@H](C)C4)cc3)n[nH]2)cc(OC)c1 [AZD4547]
EC50 (CHRF288-11 [3]): > 10 µM | EC50 (CMS): > 10 µM | EC50 (M07e): > 10 µM | EC50 (ML-2): > 10 µM

EC50 (MOLM-13 [1]): > 10 µM | EC50 (MV4-11 [2]): > 10 µM | EC50 (U937 [4]): > 10 µM
Structure (SMILES): Cn1c(=O)n(-c2ccc(C(C)(C)C#N)cc2)c2c3cc(-c4cnc5ccccc5c4)ccc3ncc21 [DACTOLISIB]
EC50 (CMK [5]): 0.066 µM | EC50 (CHRF288-11 [3]): > 10 µM | EC50 (CMS): > 10 µM | EC50 (M07e): > 10 µM | EC50 (ML-2): > 10 µM

EC50 (MOLM-13 [6]): > 10 µM | EC50 (MV4-11 [2]): > 10 µM | EC50 (U937 [4]): > 10 µM
Structure (SMILES): NC(=O)c1ccc(I)c([N+](=O)[O-])c1 [INIPARIB]
EC50 (CHRF288-11 [3]): > 10 µM | EC50 (CMS): > 10 µM | EC50 (M07e): > 10 µM | EC50 (ML-2): > 10 µM

EC50 (MOLM-13 [1]): > 10 µM | EC50 (MV4-11 [2]): > 10 µM | EC50 (U937 [4]): > 10 µM
Structure (SMILES): CCC(C)n1ncn(-c2ccc(N3CCN(c4ccc(OCC5COC(Cn6cncn6)(c6ccc(Cl)cc6Cl)O5)cc4)CC3)cc2)c1=O (stereo not drawn) [ITRACONAZOLE]
EC50 (CMK [5]): 6.4 µM | EC50 (CHRF288-11 [3]): > 10 µM | EC50 (CMS): > 10 µM | EC50 (M07e): > 10 µM | EC50 (ML-2): > 10 µM

EC50 (MOLM-13 [6]): 8.9 µM | EC50 (MV4-11 [2]): > 10 µM | EC50 (U937 [4]): > 10 µM
Structure (SMILES): CC[C@H](C)C(=O)O[C@H]1CCC=C2C=C[C@H](C)[C@H](CC[C@@H]3C[C@@H](O)CC(=O)O3)[C@H]21 [MEVASTATIN]
EC50 (CHRF288-11 [8]): 6.6 µM | EC50 (CMK [10]): > 10 µM | EC50 (CMS): > 10 µM | EC50 (M07e): > 10 µM | EC50 (ML-2): > 10 µM
